{"source": "patent US20030039580A1", "about": "“Stable preservative formulations comprising halopropynyl compounds and butoxydiglycol solvent” (Lonza Inc., priority 2001, published 2003)", "key": {"Burkholderia cepacia": {"tested_on": "Burkholderia cepacia", "assay": "Minimum inhibitory concentration, IPBC and butoxydiglycol in protein shampoo (Example 4)", "assay_type": "cell-based", "method": "Sample protein shampoos I, J and K were formed. Sample I contained only IPBC. Sample J contained only butoxydiglycol. Sample K contained both IPBC and butoxydiglycol. […] Synergism for the IPBC/butoxydiglycol studies in Table 5 was calculated by the method described in C. E. Kull et al., “Mixtures of Quaternary Ammonium Compounds and Long-Chain Fatty Acids as Antifungal Agents”, Applied Microbiology, 4:538-541(1961). The Kull method determines the quantity of each component in a mixture which is required to reach a given microbiological endpoint (e.g., MIC), and compares that amount with the quantity of the pure component necessary to reach the same endpoint. According to this method, a synergism index or value QA/QB+Qa/Qb is determined, wherein: […]"}, "Fungi": {"tested_on": "Fungi", "assay": "Antifungal screening of propynyl compositions in protein shampoo formulations (Example 3)", "assay_type": "cell-based", "conditions": "Table 4, 500 ppm in protein shampoo pH 7.0 (GPL 1000 ppm), solvent butoxydiglycol (A, H) or butylene glycol (F, G)", "text": "(§1) Samples of a standard protein shampoo (pH-7.0) were formed. The shampoo contained the following preservative-free ingredients, w/w % Samples A, […] and H contained active preservative iodopropynyl agents in a solvent. Samples A and H contained butoxydiglycol as the solvent. Samples F and G (containing a propynyl compound rather than a halopropynyl compound) contained butylene glycol as the solvent."}, "Bacteria": {"tested_on": "Bacteria", "assay": "Antibacterial screening of propynyl compositions in protein shampoo formulations (Example 3)", "assay_type": "cell-based", "conditions": "Table 4, 500 ppm in protein shampoo pH 7.0 (GPL 1000 ppm), solvent butoxydiglycol (A, H) or butylene glycol (F, G)", "text": "as §1"}, "[1]": {"tested_on": "mixed fungi, comprising A. niger (ATCC 16404) and C. albicans (ATCC 10231)", "assay": "Inhibition of mixed fungi by propynyl compound solutions in protein shampoo (Example 2)", "assay_type": "cell-based", "conditions": "Table 3, 500 ppm in protein shampoo (GPL 1000 ppm), solvent butoxydiglycol (A, E) or butylene glycol (B, C, D)", "method": "(§2) Each of the samples A to E is a protein shampoo comprising a propynyl compound. The samples were tested for antibacterial and antifungal properties by testing for inhibition of a mixed bacteria, comprising E. coli (ATCC 8739), P. aeruginosa (ATCC 9027), and S. aureus (ATCC 6538), and inhibition of a mixed fungi, comprising A. niger (ATCC 16404) and C. albicans (ATCC 10231).\n(§3) The samples “GPL” and “NP” are controls. “GPL” is 0. 1% Glydantg Plus, a liquid antimicrobial preservative available from Lonza Inc., Fair Lawn, N.J., containing a dimethyol dimethyl hydantoin formaldehyde donor. Glydant® Plus is used in personal care formulations in cosmetics and personal care products.\n(§4) In Table 3, samples A and E consist of an iodopropynyl compound in a butoxydiglycol solvent. Samples C and D consist of an iodopropynyl compound in a butylene glycol solvent, and Sample B consists of a propynyl compound in a butylene glycol solvent."}, "[2]": {"assay": "Solubility testing of propynyl compounds in solvents", "assay_type": "physicochemical", "conditions": "for Solubility in Butanediol Anhydrous: solvent Butanediol Anhydrous; for Solubility in Butoxydiglycol: solvent Butoxydiglycol; for Solubility in Sorbitol: solvent Sorbitol", "text": "The compounds used in Example 1 are identified below in Table 1. The results of the solubility testing is shown below in Table 2."}, "[3]": {"tested_on": "mixed bacteria, comprising E. coli (ATCC 8739), P. aeruginosa (ATCC 9027), and S. aureus (ATCC 6538)", "assay": "Inhibition of mixed bacteria by propynyl compound solutions in protein shampoo (Example 2)", "assay_type": "cell-based", "conditions": "Table 3, 500 ppm in protein shampoo (GPL 1000 ppm), solvent butoxydiglycol (A, E) or butylene glycol (B, C, D)", "method": "as §2, §3, §4"}}, "data": [{"smiles": "CCCCOCCOCCO", "note": "[Butoxydiglycol, 2-(2-butoxyethoxy)ethanol]", "values": [{"measurement": "MIC", "setting": "Burkholderia cepacia; Burkholderia cepacia, single active alone in protein shampoo, complete inhibition of growth, read-out: MIC, ppm active", "value": 12.5, "unit": "mg/mL"}, {"measurement": "Concentration (ppm) QB", "setting": "Burkholderia cepacia; Table 6, parameter MIC", "value": "12,500 ppm"}]}, {"smiles": "O=c1c(Cl)cn(CC#CI)c(=O)n1CC#CI", "note": "[Compound L58, 1N,3N-Diiodopropyn-2-yl-5-chlorouracil]", "values": [{"measurement": "DAY 0 Fungi (cfu/ml)", "setting": "Fungi", "value": "1.00 × 10^5 cfu/ml"}, {"measurement": "DAY 14 Fungi (cfu/ml)", "setting": "Fungi", "value": "<10", "unit": "cfu/ml"}, {"measurement": "DAY 28 Fungi (cfu/ml)", "setting": "Fungi", "value": "<10", "unit": "cfu/ml"}, {"measurement": "DAY 0 Bacteria (cfu/ml)", "setting": "Bacteria", "value": "9.00 × 10^6 cfu/ml"}, {"measurement": "DAY 14 Bacteria (cfu/ml)", "setting": "Bacteria", "value": "<10", "unit": "cfu/ml"}, {"measurement": "DAY 28 Bacteria (cfu/ml)", "setting": "Bacteria", "value": "<10", "unit": "cfu/ml"}, {"measurement": "DAY 0 Fungi (cfu/ml)", "setting": "[1]", "value": "1.00 × 10^5 cfu/ml"}, {"measurement": "DAY 14 Fungi (cfu/ml)", "setting": "[1]", "value": "<10", "unit": "cfu/ml"}, {"measurement": "DAY 28 Fungi (cfu/ml)", "setting": "[1]", "value": "<10", "unit": "cfu/ml"}, {"measurement": "Solubility in Butanediol Anhydrous", "setting": "[2]", "value": "−"}, {"measurement": "Solubility in Butoxydiglycol", "setting": "[2]", "value": "+"}, {"measurement": "DAY 0 Bacteria (cfu/ml)", "setting": "[3]", "value": "8.00 × 10^6 cfu/ml"}, {"measurement": "DAY 14 Bacteria (cfu/ml)", "setting": "[3]", "value": "<10", "unit": "cfu/ml"}, {"measurement": "DAY 28 Bacteria (cfu/ml)", "setting": "[3]", "value": "<10", "unit": "cfu/ml"}]}, {"smiles": "O=C(C#CI)c1ccc(C(F)(F)F)cc1", "note": "[Compound L74, 3-iodo-1-(4-trifluoromethylphenyl)-2-propyn-1-one]", "values": [{"measurement": "DAY 0 Fungi (cfu/ml)", "setting": "[1]", "value": "1.00 × 10^5 cfu/ml"}, {"measurement": "DAY 14 Fungi (cfu/ml)", "setting": "[1]", "value": "<10", "unit": "cfu/ml"}, {"measurement": "DAY 28 Fungi (cfu/ml)", "setting": "[1]", "value": ">10^3 cfu/ml"}, {"measurement": "Solubility in Butanediol Anhydrous", "setting": "[2]", "value": "+"}, {"measurement": "Solubility in Butoxydiglycol", "setting": "[2]", "value": "+"}, {"measurement": "DAY 0 Bacteria (cfu/ml)", "setting": "[3]", "value": "8.00 × 10^6 cfu/ml"}, {"measurement": "DAY 14 Bacteria (cfu/ml)", "setting": "[3]", "value": ">3.0 × 10^3 cfu/ml"}, {"measurement": "DAY 28 Bacteria (cfu/ml)", "setting": "[3]", "value": ">10^3 cfu/ml"}]}, {"smiles": "OC(C#CI)c1cccs1", "note": "(centres unmarked) [Compound L90, 2-(3-iodo-2-propyn-1-ol-yl) thiophene]", "values": [{"measurement": "DAY 0 Fungi (cfu/ml)", "setting": "[1]", "value": "1.00 × 10^5 cfu/ml"}, {"measurement": "DAY 14 Fungi (cfu/ml)", "setting": "[1]", "value": "<10", "unit": "cfu/ml"}, {"measurement": "DAY 28 Fungi (cfu/ml)", "setting": "[1]", "value": ">10^3 cfu/ml"}, {"measurement": "Solubility in Butanediol Anhydrous", "setting": "[2]", "value": "+"}, {"measurement": "Solubility in Butoxydiglycol", "setting": "[2]", "value": "+"}, {"measurement": "Solubility in Sorbitol", "setting": "[2]", "value": "−"}, {"measurement": "DAY 0 Bacteria (cfu/ml)", "setting": "[3]", "value": "7.00 × 10^6 cfu/ml"}, {"measurement": "DAY 14 Bacteria (cfu/ml)", "setting": "[3]", "value": ">3.0 × 10^3 cfu/ml"}, {"measurement": "DAY 28 Bacteria (cfu/ml)", "setting": "[3]", "value": ">10^3 cfu/ml"}]}, {"smiles": "OC(C#CI)c1ccc(Cl)s1", "note": "(centres unmarked) [Compound L100]", "values": [{"measurement": "DAY 0 Fungi (cfu/ml)", "setting": "Fungi", "value": "1.00 × 10^5 cfu/ml"}, {"measurement": "DAY 14 Fungi (cfu/ml)", "setting": "Fungi", "value": "<10", "unit": "cfu/ml"}, {"measurement": "DAY 28 Fungi (cfu/ml)", "setting": "Fungi", "value": "<10", "unit": "cfu/ml"}, {"measurement": "DAY 0 Bacteria (cfu/ml)", "setting": "Bacteria", "value": "8.00 × 10^6 cfu/ml"}, {"measurement": "DAY 14 Bacteria (cfu/ml)", "setting": "Bacteria", "value": "2.00 × 10^1 cfu/ml"}, {"measurement": "DAY 28 Bacteria (cfu/ml)", "setting": "Bacteria", "value": 200, "unit": "cfu/ml"}]}, {"smiles": "Cc1ccc(C(Cn2ccnc2)OCC#CI)cc1", "note": "(centres unmarked) [Compound L103, 2-(1-imidazolyl)-1-(4-methylphenyl)ethyl iodopropargyl ether]", "values": [{"measurement": "DAY 0 Fungi (cfu/ml)", "setting": "[1]", "value": "1.00 × 10^5 cfu/ml"}, {"measurement": "DAY 14 Fungi (cfu/ml)", "setting": "[1]", "value": 500, "unit": "cfu/ml"}, {"measurement": "DAY 28 Fungi (cfu/ml)", "setting": "[1]", "value": 400, "unit": "cfu/ml"}, {"measurement": "Solubility in Butanediol Anhydrous", "setting": "[2]", "value": "−"}, {"measurement": "Solubility in Butoxydiglycol", "setting": "[2]", "value": "+"}, {"measurement": "Solubility in Sorbitol", "setting": "[2]", "value": "−"}, {"measurement": "DAY 0 Bacteria (cfu/ml)", "setting": "[3]", "value": "7.00 × 10^6 cfu/ml"}, {"measurement": "DAY 14 Bacteria (cfu/ml)", "setting": "[3]", "value": "<10", "unit": "cfu/ml"}, {"measurement": "DAY 28 Bacteria (cfu/ml)", "setting": "[3]", "value": "<10", "unit": "cfu/ml"}]}, {"smiles": "C#CC(=O)c1ccc(C#N)cc1", "note": "[Compound L106, 1-(4-cyanophenyl)-2-propyn-1-one]", "values": [{"measurement": "DAY 0 Fungi (cfu/ml)", "setting": "Fungi", "value": "1.00 × 10^5 cfu/ml"}, {"measurement": "DAY 14 Fungi (cfu/ml)", "setting": "Fungi", "value": ">1.0 × 10^3 cfu/ml"}, {"measurement": "DAY 28 Fungi (cfu/ml)", "setting": "Fungi", "value": 100, "unit": "cfu/ml"}, {"measurement": "DAY 0 Bacteria (cfu/ml)", "setting": "Bacteria", "value": "8.00 × 10^6 cfu/ml"}, {"measurement": "DAY 14 Bacteria (cfu/ml)", "setting": "Bacteria", "value": ">1.0 × 10^4 cfu/ml"}, {"measurement": "DAY 28 Bacteria (cfu/ml)", "setting": "Bacteria", "value": "<10", "unit": "cfu/ml"}, {"measurement": "Solubility in Butanediol Anhydrous", "setting": "[2]", "value": "+"}, {"measurement": "Solubility in Butoxydiglycol", "setting": "[2]", "value": "+"}, {"measurement": "Solubility in Sorbitol", "setting": "[2]", "value": "−"}]}, {"smiles": "O=C(O)CCOCC#CI", "note": "[Compound L111, Iodopropynyloxypropionic Acid]", "values": [{"measurement": "DAY 0 Fungi (cfu/ml)", "setting": "Fungi", "value": "8.00 × 10^6 cfu/ml"}, {"measurement": "DAY 14 Fungi (cfu/ml)", "setting": "Fungi", "value": "<10", "unit": "cfu/ml"}, {"measurement": "DAY 28 Fungi (cfu/ml)", "setting": "Fungi", "value": "<10", "unit": "cfu/ml"}, {"measurement": "DAY 0 Bacteria (cfu/ml)", "setting": "Bacteria", "value": "8.00 × 10^6 cfu/ml"}, {"measurement": "DAY 14 Bacteria (cfu/ml)", "setting": "Bacteria", "value": "<10", "unit": "cfu/ml"}, {"measurement": "DAY 28 Bacteria (cfu/ml)", "setting": "Bacteria", "value": "<10", "unit": "cfu/ml"}]}, {"smiles": "CCCCNC(=O)OCC#CI", "note": "[IPBC, 3-iodo-2-propynyl butyl carbamate]", "values": [{"measurement": "Concentration (ppm) QA", "setting": "Burkholderia cepacia; Table 6, parameter MIC", "value": "1,250 ppm"}, {"measurement": "MIC, ppm active", "setting": "Burkholderia cepacia; single active alone in protein shampoo, complete inhibition of growth", "value": "1,250 ppm"}]}]}
